Assay results: patent publication US8557848B2, “4,5-ring annulated indole derivatives for treating or preventing of HCV and related viral infections” (Merck Sharp & Dohme Corp., priority 2006, dated 2013)
Where two headings read alike, the source gives them in different places.

What was measured:
[1] = target: T1, HCV NS5B polymerase (NS5BΔCT21, from HCV-Con 1 isolate, genotype 1b) (Hepatitis C virus genotype 1b, UniProt Q9WMX2); assay: HCV NS5B Polymerase Inhibition Assay; assay type: biochemical
T1 construct: A soluble C-terminal 21-amino acid truncated NS5B enzyme form; polyhistidine (C); made in house; host or cells: Escherichia coli
Text: A chemically synthesized 75-mer version, designated DCoH75, whose sequence matches the 3′-end of D-RNA, and DCoH75ddC, where the 3′-terminal cytidine of DCoH75 is replaced by dideoxycytidine, were used for assaying the NS5B enzyme activity as described in Ferrari et al., 12th International Symposium on HCV and Related Viruses, P-306 (2005). The sequence of the template RNA was: 5′-UGUGCCGGUCUUUCUGAACGGGAUAUAAACCUGGCCAGCUUCAUCGAACAAGUUGCCGUGUCUAUGACAUAGAUC-3′. A soluble C-terminal 21-amino acid truncated NS5B enzyme form (NS5BΔCT21, from HCV-Con 1 isolate, genotype 1b, Genbank accession number AJ238799) was produced and purified from Escherichia coli as C-terminal polyhistidine-tagged fusion protein as described in Ferrari et al., J. Virol. 73:1649-1654 (1999). A typical assay contained 20 mM Hepes pH 7.3, 10 mM MgCl2, 60 mM NaCl, 100 μg/ml BSA, 20 units/ml RNasin, 7.5 mM DTT, 0.1 μM ATP/GTP/UTP, 0.026 μM CTP, 0.25 mM GAU, 0.03 μM RNA template, 20 μCi/ml [^33P]-CTP, 2% DMSO, and 30 or 150 nM NS5B enzyme. Reactions were incubated at 22° C. for 2 hours, then stopped by adding 150 mM EDTA, washed in DE81 filter plate in 0.5M di-basic sodium phosphate buffer, pH 7.0, and counted using Packard TopCount after the addition of scintillation cocktail. Polynucleotide synthesis was monitored by the incorporation of radiolabeled CTP. The effect of the Compounds of Formula (I) on the polymerase activity was evaluated by adding various concentrations of a Compound of Formula (I), typically in 10 serial 2-fold dilutions, to the assay mixture. The starting concentrations ranged from 200 μM to 1 μM. An IC50 value for the inhibitor, defined as the compound concentration that provides 50% inhibition of polymerase activity, was determined by fitting the cpm data to the Hill equation Y=100/(1+10^((LogIC50-X)*HillSlope)), where X is the logarithm of compound concentration, and Y is the % inhibition. Ferrari et al., 12th International Symposium on HCV and Related Viruses, P-306 (2005) described in detail this assay procedure. It should be noted that such an assay as described is exemplary and not intended to limit the scope of the invention. The skilled practitioner can appreciate that modifications including but not limited to RNA template, primer, nucleotides, NS5B polymerase form, buffer composition, can be made to develop similar assays that yield the same result for the efficacy of the compounds and compositions described in the invention.
NS5B polymerase inhibition data for selected Compounds of Formula (I) is provided below in Table 2, wherein the compound numbers correspond to the compound numbering set forth in the above specification.

[2] = tested on: HCV replicon cells (replicon RNA level); assay: Cell-Based HCV Replicon Assay; details: Hepatitis C virus, 72 h
Protocol: To measure cell-based anti-HCV activity of the a Compound of Formula (I), replicon cells were seeded at 5000 cells/well in 96-well collagen I-coated Nunc plates in the presence of the Compound of Formula (I). Various concentrations of a Compound of Formula (I), typically in 10 serial 2-fold dilutions, were added to the assay mixture, with the starting concentration ranging from 250 μM to 1 μM. The final concentration of DMSO was 0.5%, fetal bovine serum was 5%, in the assay media. Cells were harvested on day 3 by the addition of 1× cell lysis buffer (Ambion cat #8721). The replicon RNA level was measured using real time PCR (Taqman assay). The amplicon was located in 5B. The PCR primers were: 5B.2F, ATGGACAGGCGCCCTGA; 5B.2R, […]; the probe sequence was FAM-labeled CACGCCATGCGCTGCGG. GAPDH RNA was used as endogenous control and was amplified in the same reaction as NS5B (multiplex PCR) using primers and VIC-labeled probe recommended by the manufacturer (PE Applied Biosystem). The real-time RT-PCR reactions were run on ABI PRISM 7900HT Sequence Detection System using the following program: 48° C. for 30 min, 95° C. for 10 min, 40 cycles of 95° C. for 15 sec, 60° C. for 1 min. The ΔCT values (CT5B-CTGAPDH) were plotted against the concentration of test compound and fitted to the sigmoid dose-response model using XLfit4 (MDL). EC50 was defined as the concentration of inhibitor necessary to achieve ΔCT=1 over the projected baseline; EC90 the concentration necessary to achieve ΔCT=3.2 over the baseline. Alternatively, to quantitate the absolute amount of replicon RNA, a standard curve was established by including serially diluted T7 transcripts of replicon RNA in the Taqman assay. All Taqman reagents were from PE Applied Biosystems. Such an assay procedure was described in detail in e.g. Malcolm et al., Antimicrobial Agents and Chemotherapy 50: 1013-1020 (2006).
HCV Replicon assay data for selected Compounds of Formula (I) is provided below in Table 1, wherein the compound numbers correspond to the compound numbering set forth in the above specification.

[3] = NS5B polymerase inhibition, [33P]-CTP incorporation, 22° C. for 2 hours, read-out: IC50
[4] = replicon RNA level by real time PCR (Taqman), cells harvested on day 3, read-out: EC50

Row | Structure (SMILES) | IC50 [1, 3] | EC50 [2, 4] | EC50 [2] | IC50 [1]
1 | O=C(NC1CC1)c1ccc(F)c(Cn2c(C(=O)O)c(-c3ccc[nH]c3=O)c3c4occc4c(F)cc32)c1 [Compound 141] | < 25 nM | > 1500 nM | – | –
2 | CC1(C)COc2c1ccc1c2c(-c2ccc[nH]c2=O)c(C(=O)O)n1Cc1cc2ccccc2nc1Cl [Compound 231] | < 25 nM | – | < 500 nM | –
3 | COc1ccc([N+](=O)[O-])cc1Cn1c(C(=O)O)c(-c2ccc[nH]c2=O)c2c3occc3ccc21 [Compound 104] | < 25 nM | > 1500 nM | – | –
4 | Cc1cccc(Cn2c(C(=O)NS(=O)(=O)C3CC3)c(-c3ccc[nH]c3=O)c3c4occc4ccc32)c1F [Compound 155] | < 25 nM | < 500 nM | – | –
5 | COC(=O)c1ccc(F)c(Cn2c(C(=O)NS(=O)(=O)C3CC3)c(-c3ccc[nH]c3=O)c3c4occc4ccc32)c1 [Compound 192] | < 25 nM | < 500 nM | – | –
6 | O=C(O)c1c(-c2ccc[nH]c2=O)c2c3ncsc3ccc2n1Cc1ccc(F)cc1F [Compound 17] | < 25 nM | > 1500 nM | – | –
7 | CN(C)S(=O)(=O)NC(=O)c1c(-c2ccc[nH]c2=O)c2c3occc3ccc2n1Cc1cc2ccccc2nc1Cl [Compound 204] | < 25 nM | < 500 nM | – | –
8 | CS(=O)(=O)NC(=O)c1c(-c2ccc[nH]c2=O)c2c3occc3ccc2n1Cc1ccc(F)cc1F [Compound 4] | 25 to 100 nM | < 500 nM | – | –
9 | O=C(O)c1c(-c2ccc[nH]c2=O)c2c3occc3c(F)cc2n1Cc1nc(Br)ccc1F [Compound 136] | < 25 nM | < 500 nM | – | –
10 | CC(C)S(=O)(=O)NC(=O)c1c(-c2ccc[nH]c2=O)c2c3occc3ccc2n1Cc1ccccc1F [Compound 64] | < 25 nM | < 500 nM | – | –
11 | Nc1cc(Cn2c(C(=O)O)c(-c3ccc[nH]c3=O)c3c4scnc4ccc32)ccn1 [Compound 13] | > 100 nM | > 1500 nM | – | –
12 | CS(=O)(=O)NC(=O)c1c(-c2ccc[nH]c2=O)c2c3c(c(F)cc2n1Cc1cc2ccccc2nc1Cl)CCO3 [Compound 196] | < 25 nM | < 500 nM | – | –
13 | O=C(O)c1c(-c2ccc[nH]c2=O)c2c3sccc3ccc2n1Cc1cc(F)ccc1F [Compound 33] | 25 to 100 nM | > 1500 nM | – | –
14 | Cc1cccc(Cn2c(C(=O)NS(=O)(=O)C3CC3)c(-c3ccc[nH]c3=O)c3c4occc4c(F)cc32)c1F [Compound 171] | < 25 nM | < 500 nM | – | –
15 | Cc1cc2ccc3c(c(-c4ccc[nH]c4=O)c(C(=O)O)n3Cc3cc(F)ccc3F)c2o1 [Compound 85] | < 25 nM | > 1500 nM | – | –
16 | NCc1cccc(Cn2c(C(=O)O)c(-c3ccc[nH]c3=O)c3c4occc4c(F)cc32)c1 [Compound 81] | < 25 nM | < 500 nM | – | –
17 | Cc1cccc(Cn2c(C(=O)NS(C)(=O)=O)c(-c3ccc[nH]c3=O)c3c4occc4ccc32)c1F [Compound 66] | < 25 nM | < 500 nM | – | –

Row | Structure (SMILES) | IC50 [1, 3] | EC50 [2, 4] | EC50 [2] | IC50 [1]
18 | CS(=O)(=O)NC(=O)c1c(-c2ccc[nH]c2=O)c2c3occc3c(F)cc2n1Cc1csc(C(N)=O)c1 [Compound 165] | < 25 nM | < 500 nM | – | –
19 | O=C(O)c1c(-c2ccc[nH]c2=O)c2c3occc3c(F)cc2n1Cc1ccc2nc[nH]c2c1 [Compound 91] | < 25 nM | < 500 nM | – | –
20 | O=C(O)c1c(-c2ccc[nH]c2=O)c2c3occc3c(F)cc2n1Cc1cc(=O)[nH]cc1F [Compound 87] | < 25 nM | – | < 500 nM | –
21 | COc1ccc(S(=O)(=O)NC(=O)c2c(-c3ccc[nH]c3=O)c3c4ccoc4ccc3n2Cc2ccc(F)cc2F)cc1 [Compound 10] | 25 to 100 nM | > 1500 nM | – | –
22 | O=C(O)c1c(-c2ccc[nH]c2=O)c2c3sccc3ccc2n1Cc1ccccc1F [Compound 34] | 25 to 100 nM | 500 to 1500 nM | – | –
23 | Cc1cc2ccc3c(c(-c4ccc[nH]c4=O)c(C(=O)NS(C)(=O)=O)n3Cc3cc(F)ccc3F)c2o1 [Compound 147] | < 25 nM | > 1500 nM | – | –
24 | CCS(=O)(=O)NC(=O)c1c(-c2ccc[nH]c2=O)c2c3occc3ccc2n1Cc1ccccc1F [Compound 68] | < 25 nM | < 500 nM | – | –
25 | Cc1ccc(Cn2c(C(=O)NS(=O)(=O)C3CC3)c(-c3ccc[nH]c3=O)c3c4occc4ccc32)c(C)c1 [Compound 152] | < 25 nM | < 500 nM | – | –
26 | O=C(O)c1c(-c2ccc[nH]c2=O)c2c3occc3c(F)cc2n1Cc1cc2ccccc2nc1Cl [Compound 126] | – | < 500 nM | – | < 25 nM
27 | CS(=O)(=O)NC(=O)c1c(-c2ccc[nH]c2=O)c2c3occc3ccc2n1Cc1ccccc1Cl [Compound 67] | < 25 nM | < 500 nM | – | –
28 | COc1ccc2nc(Cl)c(Cn3c(C(=O)O)c(-c4ccc[nH]c4=O)c4c5occc5c(F)cc43)cc2c1 [Compound 154] | < 25 nM | < 500 nM | – | –
29 | CCS(=O)(=O)NC(=O)c1c(-c2ccc[nH]c2=O)c2c3occc3ccc2n1Cc1cc(F)ccc1F [Compound 57] | < 25 nM | < 500 nM | – | –
30 | O=C(NS(=O)(=O)C1CC1)c1c(-c2ccc[nH]c2=O)c2c3occc3c(F)cc2n1Cc1cc2ccccc2nc1Cl [Compound 211] | < 25 nM | < 500 nM | – | –
31 | O=C(O)c1c(-c2ccc[nH]c2=O)c2c3occc3c(F)cc2n1Cc1cc2nc[nH]c2cc1Cl [Compound 120] | < 25 nM | < 500 nM | – | –
32 | Cc1ccccc1Cn1c(C(=O)O)c(-c2ccc[nH]c2=O)c2c3occc3ccc21 [Compound 41] | < 25 nM | < 500 nM | – | –
33 | O=C(O)c1c(-c2ccc[nH]c2=O)c2c3occc3ccc2n1Cc1ccc(F)cc1F [Compound 16] | < 25 nM | 500 to 1500 nM | – | –
